Entries after “also recorded” stand apart in the source; their conditions may differ. Counter-ions that a name gives are not always drawn. Like-named read-outs stand apart in the source and are kept apart here. Marks after values point to notes of the source that are not given here. Blank lines part the entries; values can stand above or below the molecule they belong to.
How the values were obtained:
[1] = Bioavailability of diazoxide choline and related molecules; details: male mice; for AUC0-6 / Cmax: Oral gavage, single 50 mg/kg dose; for Relative oral bioavail.: ratio of AUC0-6 to that of the IV dose of diazoxide choline
obese Zucker rats = details: 5 mg/kg/day, cited from earlier work
[2] = Solubility screen in organic solvents
[3] = Moisture sorption analysis; assay type: physicochemical
Protocol: Moisture Sorption Analysis was performed with a Hiden IGAsorp Moisture Sorption Instrument, Samples were first dried at 0% relative humidity at 25° C. until an equilibrium weight was reached, or for a maximum of 4 hours. Samples were then subjected to an isothermal (25° C.) scan from 10-90% relative humidity in steps of 10%. The samples were allowed to equilibrate to an asymptotic weight at each point for a maximum of 4 hours. Following absorption, a desorption scan from […] relative humidity (at 25° C.) was run in steps of −10%, again allowing a maximum of 4 hours for the samples to equilibrate. The resulting samples after desorption were dried at 80° C. for two hours and analyzed by XRPD.

[4] = Form conversion and degradation under thermal stress (60° C.); details: for Thermal: 7 days
Protocol: Studies were also conducted to evaluate the likelihood for conversion and degradation under thermal stress.

[5] = Polymorph screening crystallizations and characterization of forms (XRPD, DSC, TGA); assay type: physicochemical; details: for TGA: data indicates a half-molar equivalent of acetone, water, or dioxane for Forms C, D, F
Protocol: DSC analysis were conducted with a Mettler 822 DSC, by measuring the amount of energy released by a sample, as the sample was heated from 30° C. to between 300-500° C. at a rate of 10° C./min. Typical applications of DSC analysis include determination of melting point temperature and the heat of melting; measurement of the glass transition temperature; curing and crystallization studies; and identification of phase transformations.
TGA measurements were conducted with a Mettler 851 SDTA/TGA, by measuring weight loss as a function of increasing temperature, as the samples were heated from 30° C. to 230° C. at a rate of 10° C./min. The TCA can be used to analyze desorption and decomposition behavior, characterize oxidation behavior, set burnout or conditioning parameters (temperature/ramp rate/time), and determine chemical composition.
XRPD samples were analyzed with a Shimadzu XRD-6000 system, using a Cu Kα, 40 kV, 40 mA X-ray tube. The divergence and scatter slits were 1.00 deg, and the receiving slit was 0.30 mm. Samples were continuously scanned at a range of 3.0-45.0 deg, with a step size of 0.04 deg., at a scan rate of 2 deg/min.
After hot filtration the vials were placed in a refrigerator (4° C.) for 16 hours. […] All solids were dried in vacuo at ambient temperature and 30 in. Hg.
After hot filtration the vials were then slowly cooled to room temperature at the rate of 20° C./h and stirred at room temperature for 1-2 hours. All solids were dried in vacuo at ambient temperature and 30 in. Hg.
Solvents for crystallizations were chosen based on the solubility screen summarized below.

Zucker rats = details: oral 1-10 mg/kg/day, 14 days; cited from earlier work
high-fructose diet rats = details: rat, in vivo; cited from earlier work
[6] = Slurry studies of inter-conversion of the solid form; details: room temperature
[7] = 60° C., closed, protected from light, 7 and 14 days
[8] = 50/50 mixtures of potassium salt Forms C, D, F, ethyl acetate, acetonitrile, isopropanol

AUC0-6 [1]: 800 ± 126 ng·h/mL
Cmax [1]: 0.181 ± 0.016 µg/mL
Relative oral bioavail. [1]: 0.6%
Structure (SMILES): O=S1(=O)N=C(NC2CCC2)Nc2ccc(Br)cc21

AUC0-6 [1]: 313 ± 15 ng·h/mL
Cmax [1]: 0.08 ± 0.012 µg/mL
Relative oral bioavail. [1]: 0.2%
Structure (SMILES): CC(C)NC1=NS(=O)(=O)c2cc(Cl)c(F)cc2N1

AUC0-6 [1]: 89 ± 16 ng·h/mL
Cmax [1]: 0.024 ± 0.01 µg/mL
Relative oral bioavail. [1]: 0.06%
Structure (SMILES): O=S1(=O)N=C(NC2CCC2)Nc2ccc(F)cc21

AUC0-6 [1]: 3590 ng·h/mL
Cmax [1]: 1.56 µg/mL
Relative oral bioavail. [1]: 2.6%
Structure (SMILES): COc1ccc2c(c1)NC(NC(C)C)=NS2(=O)=O

Structure (SMILES): Cl.N#CN=C(Nc1ccc(N)nc1)N[C@@H]1C[C@@H]2CC[C@H]1C2 [AL0671, (+)—N-(6-amino-3-pyridil)-N′-[(1S,2R,4R)-bicyclo-[2.2.1]hept-2-yl]-N″-cyanoguanidine hydrochloride]
serum total triglyceride, chylomicron and very-low-density lipoprotein levels (obese Zucker rats; 1 or 2 weeks): significantly decrease
increase of hepatic triglyceride lipase activities (obese Zucker rats; postheparin plasma): 3 fold
increase of lipoprotein lipase activities (obese Zucker rats; postheparin plasma): 4 fold

Structure (SMILES): CC1=NS(=O)(=O)c2cc(Cl)ccc2N1 [Diazoxide Potassium Salt]
Soluble ([2]; Acetone, 0.40 mg/mL, 55 ° C.): Yes
Conc. ([2]; CH2Cl2, 55 ° C.): 260 µg/mL
Soluble ([2]; CH2Cl2, […], 55 ° C.): No
Soluble ([2]; DMF, >6.40 mg/mL, rt): Yes
Conc. ([2]; DMF, rt): >6400 µg/mL
Conc. ([2]; Dioxane, 55 ° C.): 280 µg/mL
Soluble ([2]; Dioxane, […], 55 ° C.): No
Conc. ([2]; EtOAc, 55 ° C.): 360 µg/mL
Soluble ([2]; EtOAc, […], 55 ° C.): No
Conc. ([2]; EtOH, 55 ° C.): 2930 µg/mL
Soluble ([2]; EtOH, […], 55 ° C.): Yes
Soluble ([2]; Heptane, 0.24 mg/mL, 55 ° C.): No
Conc. ([2]; Heptane, 55 ° C.): 240 µg/mL
Conc. ([2]; IPA, 55 ° C.): 2100 µg/mL
Soluble ([2]; IPA, […], 55 ° C.): Yes
Conc. ([2]; IPAc, 55 ° C.): 340 µg/mL
Soluble ([2]; IPAc, […], 55 ° C.): No
Soluble ([2]; MEK, 0.30 mg/mL, 55 ° C.): Partially
Conc. ([2]; MEK, 55 ° C.): 300 µg/mL
Conc. ([2]; MTBE, 55 ° C.): 360 µg/mL
Soluble ([2]; MTBE, […], 55 ° C.): No
Soluble ([2]; MeCN, 0.85 mg/mL, 55 ° C.): Yes
Conc. ([2]; MeCN, 55 ° C.): 850 µg/mL
Soluble ([2]; MeOH, 6.00 mg/mL, 55 ° C.): Yes
Conc. ([2]; MeOH, 55 ° C.): 6000 µg/mL
Conc. ([2]; THF, 55 ° C.): 360 µg/mL
Soluble ([2]; THF, […], 55 ° C.): Partially
Conc. ([2]; Toluene, 55 ° C.): 280 µg/mL
Soluble ([2]; Toluene, […], 55 ° C.): No
Soluble ([2]; Water, 0.30 mg/mL, 55 ° C.): No
Soluble ([2]; c-Hexane, 0.30 mg/mL, 55 ° C.): No
Conc. ([2]; c-Hexane, 55 ° C.): 300 µg/mL
solubility ([2]; water, 55 °C): 300 µg/mL

Structure (SMILES): CC1=NS(=O)(=O)c2cc(Cl)ccc2[N-]1.[K+] [Diazoxide potassium Form C]
Moisture Sorption [3]: Hygroscopic -
Moisture Sorption: deliquesced at [3]: deliquesced at 90% RH
Thermal [4]: Stable (7 days)
XRPD [5]: Crystalline
TGA [5]: 8.4%**

Structure (SMILES): CC1=NS(=O)(=O)c2cc(Cl)ccc2[N-]1.[K+] [Diazoxide potassium Form D]
Moisture Sorption [3]: Hygroscopic -
Moisture Sorption: deliquesced at [3]: deliquesced at 90% RH
Thermal [4]: Stable (7 days)
XRPD [5]: Crystalline
TGA [5]: 4.5%**

Structure (SMILES): CC1=NS(=O)(=O)c2cc(Cl)ccc2[N-]1.[K+] [Diazoxide potassium Form F]
Thermal [4]: Stable (7 days)
XRPD [5]: Crystalline
TGA [5]: 13.1%**

Structure (SMILES): N#CNC(=NCCc1ccccc1Cl)c1cncc(N)c1 [KRN4884]
serum insulin and glucose levels (Zucker rats): no change
serum triglyceride levels (Zucker rats): dose dependently reduce
Hepatic triglyceride lipase activity (high-fructose diet rats): not affected
lipoprotein lipase (LPL) activity in muscle (high-fructose diet rats): significantly increased

Moisture Sorption (hygroscopicity) ([3]; 25° C., listed as Form A): Hygroscopic - deliquesced
water absorbed ([3]; 60% RH, 25° C., listed as Form A): 2.4 wt %
crystalline form after moisture sorption/desorption (XRPD) ([3]; listed as Form A): consistent with Form A
form conversion and degradation under thermal stress (XRPD, DSC) [4]: Started to convert to Form
Structure (SMILES): CC1=Nc2ccc(Cl)cc2S(=O)(=O)[N-]1.C[N+](C)(C)CCO [diazoxide choline salt Form A]
inter-conversion of the solid form in slurry ([6]; 7 and 14 days, n-heptane, dichloromethane, toluene (Table 16 Form B: CH2Cl2, THF, t-AmOH), listed as Form A): conversion to Form B was observed after seven days; also recorded: readily converted to Form B; also recorded: Converted to Form B after 7

water absorbed ([3]; 60% RH, 25° C., listed as Form B): 7.4 wt %
moisture absorbed ([3]; 70% relative humidity, 25° C.): over 14.5%
crystalline form after moisture sorption/desorption (XRPD) ([3]; listed as Form B): remained in the Form B crystal structure
form conversion and degradation under thermal stress (XRPD, DSC) [4]: Stable after 14 days at
Structure (SMILES): CC1=Nc2ccc(Cl)cc2S(=O)(=O)[N-]1.C[N+](C)(C)CCO [diazoxide choline salt Form B]
Moisture Sorption (hygroscopicity) ([3]; 25° C., listed as Form B): hygroscopic; also recorded: Hygroscopic -
inter-conversion of the solid form in slurry ([6]; 7 and 14 days, n-heptane, dichloromethane, toluene (Table 16 Form B: CH2Cl2, THF, t-AmOH), listed as Form B): form conversion was not observed; also recorded: Stable after 14 days in

Structure (SMILES): CC(C)=O.CC1=NS(=O)(=O)c2cc(Cl)ccc2[N-]1.CC1=NS(=O)(=O)c2cc(Cl)ccc2[N-]1.[K+].[K+] [diazoxide potassium salt Form C]
crystalline form after moisture sorption/desorption (XRPD) [3]: consistent with Form D
Moisture Sorption (hygroscopicity) ([3]; 25° C.): hygroscopic
water absorbed ([3]; 90% RH, 25° C.): approximately 47 wt %
form conversion and degradation under thermal stress (XRPD, DSC) [4, 7]: stable
inter-conversion of the solid form in slurry [6, 8]: readily converted to Form D; also recorded: conversion to Form D was observed in all solvents

Structure (SMILES): CC1=NS(=O)(=O)c2cc(Cl)ccc2[N-]1.CC1=NS(=O)(=O)c2cc(Cl)ccc2[N-]1.O.[K+].[K+] [diazoxide potassium salt Form D]
crystalline form after moisture sorption/desorption (XRPD) [3]: consistent with Form D
Moisture Sorption (hygroscopicity) ([3]; 25° C.): hygroscopic
inter-conversion of the solid form in slurry [6, 8]: conversion to Form D was observed in all solvents

Structure (SMILES): C1COCCO1.CC1=NS(=O)(=O)c2cc(Cl)ccc2[N-]1.CC1=NS(=O)(=O)c2cc(Cl)ccc2[N-]1.[K+].[K+] [diazoxide potassium salt Form F]
crystalline form after moisture sorption/desorption (XRPD) [3]: consistent with Form D
Moisture Sorption (hygroscopicity) ([3]; 25° C.): hygroscopic
water absorbed ([3]; 90% RH, 25° C.): ~22 wt %
inter-conversion of the solid form in slurry [6, 8]: readily converted to Form D; also recorded: conversion to Form D was observed in all solvents

Structure (SMILES): CC1=NS(=O)(=O)c2cc(Cl)ccc2[N-]1.[Na+] [sodium salt of diazoxide]
Moisture Sorption (hygroscopicity) ([3]; 25° C.): hygroscopic
hydrate formation (hysteresis upon desorption) ([3]; 25° C.): possible hydrate formation
Moisture Sorption (hygroscopicity) ([3]; 25° C., listed as Sodium diazoxide salt): deliquescent -
water absorbed ([3]; 60% RH, 25° C.): 1.2 wt %
water absorbed ([3]; 80% RH, 25° C.): 6.6 wt %
form conversion and degradation under thermal stress (XRPD, DSC) [4, 7]: little propensity to change form or degrade
inter-conversion of the solid form in slurry ([6]; 7 and 14 days, n-heptane, dichloromethane, toluene (Table 16 Form B: CH2Cl2, THF, t-AmOH)): no propensity of inter-conversion

From patent publication US20120238554A1, “SALTS OF POTASSIUM ATP CHANNEL OPENERS AND USES THEREOF” (priority 2007, published 2012)
